# Experimental data from patent US20190002452A1 (GUANGZHOU HENOVCOM BIOSCIENCE CO., LTD, priority 2016, published 2019).
# Biological target: T1, human farnesol receptor protein hFXR (Homo sapiens, UniProt Q96RI1)
# T1 construct: hexahistidine (His6)
# T1 sequence (Q96RI1 1-486): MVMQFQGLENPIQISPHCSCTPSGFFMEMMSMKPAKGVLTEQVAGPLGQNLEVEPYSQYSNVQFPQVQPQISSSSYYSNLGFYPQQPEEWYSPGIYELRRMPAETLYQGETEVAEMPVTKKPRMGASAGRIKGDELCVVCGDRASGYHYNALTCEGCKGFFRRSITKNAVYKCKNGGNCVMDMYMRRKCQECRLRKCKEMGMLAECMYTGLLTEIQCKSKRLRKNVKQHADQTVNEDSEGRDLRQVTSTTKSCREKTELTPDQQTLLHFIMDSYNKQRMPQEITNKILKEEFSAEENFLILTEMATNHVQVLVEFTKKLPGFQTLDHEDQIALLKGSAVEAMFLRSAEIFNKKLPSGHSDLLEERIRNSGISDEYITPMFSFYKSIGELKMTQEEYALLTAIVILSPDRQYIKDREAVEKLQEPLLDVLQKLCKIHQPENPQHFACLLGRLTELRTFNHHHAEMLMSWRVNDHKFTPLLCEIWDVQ
# Test: AlphaScreen assay of FXR agonist activity in vitro: effect on binding between human farnesol receptor protein and its coactivator (SRC1-2)
# Format: biochemical
# Conditions: hFXR 100 nM, peptide bSRC1-2 50 nM, 2 hr incubation at room temperature
# Experimental: FXR agonist activity in vitro for the chemicals prepared in the above examples is measured.
# AlphaScreen-based assays are performed with a hexahistidine detection kit manufactured by Perkins-Elmer, for measuring the effect of chemical compounds on the binding between human farnesol receptor protein and its coactivator (SRC1-2), the method is shown as follows:
# 1) Preparing a mixture comprising human farnesol receptor protein hFXR (100 nM, 15 μL/well), peptide bSRC1-2 (50 nM, 15 μL/well), 10× AlphaScreen buffer solution (15 μL/well and DI water (60 μL/well), and then transferring 105 μL/well of the mixture to a 96-well plate; 2) Diluting the chemicals prepared in the above examples by twice gradient 12×, with 15 μL/well; 3) Adding donor beads and acceptor beads, 30 μL/well in total; (attention: the beads are light-sensitive) 4) Incubating in dark at room temperature for 2 hr; 5) Transferring 40 μL/well of the mixture to a 384-well plate with 3 replicates, and then centrifuging at 1000 rpm for 1 min, to make liquid mixed well underneath the wells. (attention: photopathic operation); 6) In a dark room, reading the plate (by Homogeneous luminescent immunoassay system) to obtain EC50 with a GraphPad Prism5 software.
row,Structure (SMILES),EC50
1,"O=C(O)c1ccc(N2CCC3(CC(OCc4c(-c5c(Cl)cccc5Cl)noc4C4CC4)C3)C2)nc1 (stereo not shown) [Example 44, 6-(2-((5-cyclopropyl-3-(2,6-dichlorophenyl)isoxazol-4-yl)methoxy)-6-azaspiro[3.4]octan-6-yl) pyridine-3-carboxylic Acid]",< 100 nM
2,"O=C(O)c1cnc(N2CCC3(CC(OCc4c(-c5c(Cl)cccc5Cl)noc4C4CC4)C3)C2)cn1 (stereo not shown) [Example 35, 5-(2-((5-cyclopropyl-3-(2,6-dichlorophenyl)isoxazol-4-yl)methoxy)-6-azaspiro[3.4]octan-6-yl)pyrazine-2-carboxylic Acid]",< 100 nM
3,"O=C(O)c1ccc2nc(N3CC4CCCCC(C3)C4OCc3c(-c4c(Cl)cccc4Cl)noc3C3CC3)sc2c1 (stereo not shown) [Example 11, 2-(10-((5-cyclopropyl-3-(2,6-dichlorophenyl)isoxazol-4-yl)methoxy)-8-azabicyclo[4.3.1]decan-8-yl)benzo[d]thiazole-6-carboxylic Acid]",< 100 nM
4,"O=C(O)c1cccc(C(=O)N2CC3CCC(C2)C3OCc2c(-c3c(Cl)cccc3Cl)noc2C2CC2)c1 (stereo not shown) [Example 5, 3-(8((5-cyclopropyl-3-(2,6-dichlorophenyl)isoxazol-4-yl)methoxy)3-azabicyclo[3.2.1]octan-3-carbonyl)benzoic Acid]",> 1000 nM
5,"O=C(O)c1ccc2nc(N3CC4CCC(OCc5c(-c6c(Cl)cccc6Cl)noc5C5CC5)CC4C3)sc2c1 (stereo not shown) [Example 25, 2-(5-((5-cyclopropyl-3-(2,6-dichlorophenyl)isoxazol-4-yl)methoxy)hexahydro-1H-isoindol-2(3H)-yl) benzo[d]thiazole-6-carboxylic Acid]",100 to 1000 nM
6,"O=C(O)c1ccc2nc(N3CC4(CC(OCc5c(-c6c(Cl)cccc6Cl)noc5C5CC5)C4)C3)sc2c1 [Example 4, 2-(6((5-cyclopropyl-3-(2,6-dichlorophenyl)isoxazol-4-yl)methoxy)2-azaspiro[3.3]heptan-2-yl)benzo[d]thiazole-6-carboxylic Acid]",< 100 nM
7,"O=C(O)c1ccc2nc(N3CCc4ccc(OCc5c(-c6c(Cl)cccc6Cl)noc5C5CC5)cc4C3)sc2c1 [Example 24, 2-(7-((5-cyclopropyl-3-(2,6-dichlorophenyl)isoxazol-4-yl)methoxy)-3,4-dihydroisoquinolin-2(1H)-yl) benzo[d]thiazole-6-carboxylic Acid]",100 to 1000 nM
8,"O=C(O)c1cc(F)c2nc(N3CC4(CC(OCc5c(-c6c(Cl)cccc6Cl)noc5C5CC5)C4)C[C@H]3CF)sc2c1 (stereo partly drawn) [Example 19, (S)-2-(2-((5-cyclopropyl-3-(2,6-dichlorophenyl)isoxazol-4-yl)methoxy)-7-(fluromethyl)-6-azaspiro[3.4]octan-6-yl)-4-flurobenzo[d]thiazole-6-carboxylic Acid]",100 to 1000 nM
9,"Cn1cc(C(=O)O)c2ccc(N3CCC4(CC(OCc5c(-c6c(Cl)cccc6Cl)noc5C5CC5)C4)C3)cc21 (stereo not shown) [Example 33, 6-(2-((5-cyclopropyl-3-(2,6-dichlorophenyl)isoxazol-4-yl)methoxy)-6-azaspiro[3.4]octan-6-yl)-1-methyl-1H-indole-3-carboxylic Acid]",100 to 1000 nM
10,"CS(=O)(=O)NC(=O)c1ccc2nc(N3CCC4(CC(OCc5c(-c6c(Cl)cccc6Cl)noc5C5CC5)C4)C3)sc2c1 (stereo not shown) [Example 47, 2-(2-((5-cyclopropyl-3-(2,6-dichlorophenyl)isoxazol-4-yl)methoxy)-6-azaspiro[3.4]octan-6-yl)-N-(methylsulfonyl)benzo[d]thiazole-6-carboxamide]",100 to 1000 nM
